# From patent US9409866B2, “Pyridine-2-amides useful as CB2 agonists” (Hoffmann-La Roche Inc., priority 2012, dated 2016)
# Read-outs that look alike come from different tables or passages of the source.
# Legend:
# [1] = molecular target: human CB2 receptors (Homo sapiens (Human), UniProt P34972); assay: functional cAMP assay, CHO cells expressing human CB2; assay type: cell-based
# In short: (§1)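 CHO cells expressing human CB1 or CB2 were preincubated 30 min at 30 °C in Krebs Ringer bicarbonate with 1 mM IBMX, then exposed to compound 30 min at 30 °C. cAMP quantified by TR-FRET competition (Alexa700 antibody/ruthenium-cAMP) against a 10 μM–0.13 nM standard curve; EC50 derived.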
# [2] = molecular target: human CB1 receptors (Homo sapiens (Human), UniProt P21554); assay: functional cAMP assay, CHO cells expressing human CB1; assay type: cell-based
# In short: as §1
# [3] = Human CB1 EC50 (uM), functional cAMP assay, CHO cells expressing human CB1
# [4] = functional cAMP assay, CHO cells expressing human CB1; read-out: Human CB1 EC50
# [5] = read-out: Human CB1 EC50; functional cAMP assay, CHO cells expressing human CB1
# Chain of human CB2 receptors (P34972 whole entry): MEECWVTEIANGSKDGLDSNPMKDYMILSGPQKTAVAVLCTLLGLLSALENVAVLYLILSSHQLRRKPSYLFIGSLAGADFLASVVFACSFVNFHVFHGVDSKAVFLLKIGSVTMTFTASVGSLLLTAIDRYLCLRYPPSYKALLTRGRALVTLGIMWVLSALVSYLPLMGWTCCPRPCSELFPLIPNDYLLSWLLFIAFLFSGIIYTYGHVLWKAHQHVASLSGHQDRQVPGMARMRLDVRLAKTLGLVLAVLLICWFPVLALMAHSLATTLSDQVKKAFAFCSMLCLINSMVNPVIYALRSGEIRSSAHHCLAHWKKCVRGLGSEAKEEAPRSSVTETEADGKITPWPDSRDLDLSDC
# Chain of human CB1 receptors (P21554 whole entry): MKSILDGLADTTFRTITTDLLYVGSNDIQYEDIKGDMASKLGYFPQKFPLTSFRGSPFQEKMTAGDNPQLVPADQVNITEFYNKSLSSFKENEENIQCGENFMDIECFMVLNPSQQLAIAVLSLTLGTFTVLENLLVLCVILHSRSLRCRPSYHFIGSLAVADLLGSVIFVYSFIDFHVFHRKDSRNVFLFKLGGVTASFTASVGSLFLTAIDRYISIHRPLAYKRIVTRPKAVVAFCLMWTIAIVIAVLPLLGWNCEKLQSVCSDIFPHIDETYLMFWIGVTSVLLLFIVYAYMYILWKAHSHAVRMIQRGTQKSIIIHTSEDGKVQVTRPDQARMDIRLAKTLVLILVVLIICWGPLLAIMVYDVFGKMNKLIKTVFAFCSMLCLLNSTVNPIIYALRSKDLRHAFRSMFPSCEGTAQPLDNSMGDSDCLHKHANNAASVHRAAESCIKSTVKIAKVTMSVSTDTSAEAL
Compound,EC50 ([1]; Human CB2 EC50 (uM)),"EC50 [2, 3]",EC50 ([1]; read-out: Human CB2 EC50),"EC50 [2, 4]","EC50 [2, 5]"
"CC1(COc2cc(C(=O)NC(C)(C)c3nnc(-c4ccccc4)o3)ncc2C2CC2)COC1 [Example 215, 5-cyclopropyl-4-[(3-methyloxetan-3-yl)methoxy]-N-[2-(5-phenyl-1,3,4-oxadiazol-2-yl)propan-2-yl]pyridine-2-carboxamide]",0.0309 µM,> 10 µM,,,
"Cc1nc(C(NC(=O)c2cc(O[C@@H](C)C(F)(F)F)c(C3CC3)cn2)C2(C)COC2)no1 (stereo partly drawn) [Example 255, 5-cyclopropyl-N-[(5-methyl-1,2,4-oxadiazol-3-yl)-(3-methyloxetan-3-yl)methyl]-4-[(2S)-1,1,1-trifluoropropan-2-yl]oxypyridine-2-carboxamide]",,,0.0067 µM,> 10 µM,
"Cc1nc(C(C)(NC(=O)c2cc(OCC(F)(F)F)c(C3(F)COC3)cn2)C2CC2)no1 (single isomer, unassigned) [Example 167, N-[1-cyclopropyl-1-(5-methyl-1,2,4-oxadiazol-3-yl)ethyl]-5-(3-fluorooxetan-3-yl)-4-(2,2,2-trifluoroethoxy)pyridine-2-carboxamide]",0.0281 µM,,,,> 10 µM
"Cc1nc([C@@](C)(NC(=O)c2cc(OCC(F)(F)F)c(N3CC(F)(F)C3)cn2)C2CC2)no1 (single isomer, unassigned) [Example 88, 5-(3,3-Difluoro-azetidin-1-yl)-4-(2,2,2-trifluoro-ethoxy)-pyridine-2-carboxylic acid [1-cyclopropyl-1-(5-methyl-[1,2,4]oxadiazol-3-yl)-ethyl]-amide]",0.0105 µM,1.79 µM,,,
"CNC(=O)CC(C)(NC(=O)c1cc(OCC(F)(F)F)c(C2CC2)cn1)C1CC1 (single isomer, unassigned) [Example 242, 5-cyclopropyl-N-[2-cyclopropyl-4-(methylamino)-4-oxobutan-2-yl]-4-(2,2,2-trifluoroethoxy)pyridine-2-carboxamide]",0.237 µM,,,,> 10 µM
"Cc1nc(C(C)(CC2CC2)NC(=O)c2cc(OCC(F)(F)F)c(C3(O)COC3)cn2)no1 (stereo not shown) [Example 123, N-[1-cyclopropyl-2-(5-methyl-1,2,4-oxadiazol-3-yl)propan-2-yl]-5-(3-hydroxyoxetan-3-yl)-4-(2,2,2-trifluoroethoxy)pyridine-2-carboxamide]",,,0.998 µM,> 10 µM,
"CC(CC(N)=O)(NC(=O)c1cc(OCC(F)F)c(C2CC2)cn1)C1CC1 (single isomer, unassigned) [Example 272, N-[4-amino-2-cyclopropyl-4-oxobutan-2-yl]-5-cyclopropyl-4-(2,2-difluoroethoxy)pyridine-2-carboxamide]",0.0495 µM,> 10 µM,,,
"NC(=O)CC1(NC(=O)c2cc(OCC3CC3)c(N3CC(F)(F)C3)cn2)CS(=O)(=O)C1 [Example 267, N-[3-(2-amino-2-oxoethyl)-1,1-dioxothietan-3-yl]-4-(cyclopropylmethoxy)-5-(3,3-difluoroazetidin-1-yl)pyridine-2-carboxamide]",,,0.0105 µM,> 10 µM,
"COC(=O)C(C)C(C)(C)NC(=O)c1cc(OCC2CC2)c(Cl)cn1 (stereo not shown) [Example 31, Methyl 3-({[5-chloro-4-(cyclopropylmethoxy)pyridin-2-yl]carbonyl}amino)-2,3-dimethylbutanoate]",,,0.0095 µM,> 10 µM,
"Cc1nc(C(NC(=O)c2cc(OCC(F)(F)F)c(C3CC3)cn2)C(C)(C)C)no1 (stereo not shown) [Example 161, 5-cyclopropyl-N-[2,2-dimethyl-1-(5-methyl-1,2,4-oxadiazol-3-yl)propyl]-4-(2,2,2-trifluoroethoxy)pyridine-2-carboxamide]",,,0.0088 µM,> 10 µM,
"Cn1nnc(C(C)(CC2CC2)NC(=O)c2cc(OCC(F)(F)F)c(C3CC3)cn2)n1 (stereo not shown) [Example 150, 5-cyclopropyl-N-[1-cyclopropyl-2-(2-methyltetrazol-5-yl)propan-2-yl]-4-(2,2,2-trifluoroethoxy)pyridine-2-carboxamide]",,,0.109 µM,> 10 µM,
"Cc1nc(C(C)(CS(C)(=O)=O)NC(=O)c2cc(OCCF)c(C3CC3)cn2)no1 (single isomer, unassigned) [Example 279, 5-cyclopropyl-4-(2-fluoroethoxy)-N-[2-(5-methyl-1,2,4-oxadiazol-3-yl)-1-methylsulfonylpropan-2-yl]pyridine-2-carboxamide]",0.173 µM,> 10 µM,,,
"CC(C)(C)C(NC(=O)c1cc(OCC(F)(F)F)c(C2CC2)cn1)c1noc(N)n1 (stereo not shown) [Example 192, N-[1-(5-amino-1,2,4-oxadiazol-3-yl)-2,2-dimethylpropyl]-5-cyclopropyl-4-(2,2,2-trifluoroethoxy)pyridine-2-carboxamide]",,,0.0044 µM,> 10 µM,
"CC(C)(C)C(NC(=O)c1cc(OCC(F)(F)F)c(N2CC(F)(F)C2)cn1)C(N)=O (single isomer, unassigned) [Example 263, N-[1-amino-3,3-dimethyl-1-oxobutan-2-yl]-5-(3,3-difluoroazetidin-1-yl)-4-(2,2,2-trifluoroethoxy)pyridine-2-carboxamide]",0.0338 µM,,,,> 10 µM
"CC(C)(C)C(NC(=O)c1cc(OCC(F)(F)F)c(C2CC2)cn1)c1noc(N)n1 (single isomer, unassigned) [Example 227, N-[1-(5-amino-1,2,4-oxadiazol-3-yl)-2,2-dimethylpropyl]-5-cyclopropyl-4-(2,2,2-trifluoroethoxy)pyridine-2-carboxamide]",0.015 µM,,,,> 10 µM
"NC(=O)[C@H](CC1CC1)NC(=O)c1cc(OCC2CC2)c(Cl)cn1 [Example 4, 5-Chloro-4-cyclopropylmethoxy-pyridine-2-carboxylic acid ((S)-1-carbamoyl-2-cyclopropyl-ethyl)-amide]",,,0.115 µM,> 10 µM,
"CC(C)(C)C(NC(=O)c1cc(OCC2CC2)c(N2CC(F)(F)C2)cn1)C(N)=O (stereo not shown) [Example 257, N-(1-amino-3,3-dimethyl-1-oxobutan-2-yl)-4-(cyclopropylmethoxy)-5-(3,3-difluoroazetidin-1-yl)pyridine-2-carboxamide]",,,0.003 µM,> 10 µM,
"Cc1nnc(C(C)(CC2COC2)NC(=O)c2cc(OCC(F)(F)F)c(C3CC3)cn2)o1 (stereo not shown) [Example 191, 5-cyclopropyl-N-[2-(5-methyl-1,3,4-oxadiazol-2-yl)-1-(oxetan-3-yl)propan-2-yl]-4-(2,2,2-trifluoroethoxy)pyridine-2-carboxamide]",,,0.707 µM,> 10 µM,
"Cc1nc(C(C)(CC2CC2)NC(=O)c2cc(O[C@@H](C)C(F)(F)F)c(C3CC3)cn2)no1 (stereo partly drawn) [Example 100, 5-Cyclopropyl-4-((S)-2,2,2-trifluoro-1-methyl-ethoxy)-pyridine-2-carboxylic acid [2-cyclopropyl-1-methyl-1-(5-methyl-[1,2,4]oxadiazol-3-yl)-ethyl]-amide]",,,0.0006 µM,> 10 µM,
"Cc1nc(C(C)(CS(C)(=O)=O)NC(=O)c2cc(OCCF)c(C3CC3)cn2)no1 (single isomer, unassigned) [Example 280, 5-cyclopropyl-4-(2-fluoroethoxy)-N-[2-(5-methyl-1,2,4-oxadiazol-3-yl)-1-methylsulfonylpropan-2-yl]pyridine-2-carboxamide]",0.0786 µM,,,,> 10 µM
